Reference: the supplement of paper PMC10307832

What was measured:
Experiment in all cases: relative viability (nuclei count vs DMSO), 5 days (fraction); higher = more cells survive
[1] = compound: CC1=CC(=CC=C1)NC2=NC(=CS2)C3=CC=NC=C3 + O=C(c1cc(Cc2n[nH]c(=O)c3ccccc23)ccc1F)N1CCN(C(=O)C2CC2)CC1 [Olaparib] (partner 8 µM)
Procedure, shortened: (§1)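 Each reported value is a median over duplicate plates. It expresses relative viability: treated-well nuclei count divided by vehicle-well nuclei count. Lung cancer cell lines in 1536-well plates were dosed by pin tool a day after seeding, alone with one drug or with a fixed anchor-drug dose plus five library-drug doses (not always all listed) in √10 steps, and nuclei were counted after 5 days.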

Masitinib + Crizotinib = compound: Cc1ccc(NC(=O)c2ccc(CN3CCN(C)CC3)cc2)cc1Nc1nc(-c2cccnc2)cs1 [Masitinib] + C[C@@H](Oc1cc(-c2cnn(C3CCNCC3)c2)cnc1N)c1c(Cl)ccc(F)c1Cl [Crizotinib] (partner 1 µM)
Procedure, shortened: as §1

[2] = compound: CC1=CC(=CC=C1)NC2=NC(=CS2)C3=CC=NC=C3 + NC(=O)Nc1cc(-c2cccc(F)c2)sc1C(=O)N[C@H]1CCCNC1 [AZD7762] (partner 0.2 µM)
Procedure, shortened: as §1

Masitinib + Foretinib = compound: Cc1ccc(NC(=O)c2ccc(CN3CCN(C)CC3)cc2)cc1Nc1nc(-c2cccnc2)cs1 [Masitinib] + COc1cc2c(Oc3ccc(NC(=O)C4(C(=O)Nc5ccc(F)cc5)CC4)cc3F)ccnc2cc1OCCCN1CCOCC1 [Foretinib] (partner 0.25 µM)
Procedure, shortened: as §1

Cell Line	relative viability ([1]; first compound 0.08 µM)	relative viability ([1]; first compound 0.253 µM)	relative viability ([1]; first compound 0.8 µM)	relative viability ([1]; first compound 2.53 µM)	relative viability ([1]; first compound 8 µM)	relative viability (Masitinib + Crizotinib; first compound 0.01 µM)	relative viability (Masitinib + Crizotinib; first compound 0.03162 µM)	relative viability (Masitinib + Crizotinib; first compound 0.1 µM)	relative viability (Masitinib + Crizotinib; first compound 0.3162 µM)	relative viability (Masitinib + Crizotinib; first compound 1 µM)	relative viability ([2]; first compound 0.08 µM)	relative viability ([2]; first compound 0.253 µM)	relative viability ([2]; first compound 0.8 µM)	relative viability ([2]; first compound 2.53 µM)	relative viability ([2]; first compound 8 µM)	relative viability (Masitinib + Foretinib; first compound 0.01 µM)	relative viability (Masitinib + Foretinib; first compound 0.03162 µM)	relative viability (Masitinib + Foretinib; first compound 0.1 µM)	relative viability (Masitinib + Foretinib; first compound 0.3162 µM)	relative viability (Masitinib + Foretinib; first compound 1 µM)
HOP-62	0.445	0.5	0.471	0.48	0.512	0.659	0.88	1.09	1.08	0.898	0.629	0.598	0.619	0.861	0.578	1.02	1.04	1.22	1.17	1.14
LC-2-ad	0.661	0.693	0.657	0.627	0.616	0.347	0.399	0.466	0.473	0.373	0.823	0.845	0.911	0.835	0.821	0.87	0.859	1.09	0.847	0.825
LCLC-97TM1	0.419	0.304	0.343	0.411	0.379	0.27	0.31	0.394	0.288	0.238	0.338	0.292	0.379	0.246	0.376	–	0.966	0.941	1.08	0.874
LCLC-103H	0.631	0.725	0.704	0.748	0.546	0.783	1.08	0.891	0.969	1.03	0.73	0.755	0.725	0.74	0.651	0.743	0.684	0.773	0.703	0.735
LK-2	0.665	0.762	0.903	0.824	1.09	0.248	0.246	0.21	0.217	0.188	–	0.429	0.555	0.36	0.618	1.19	1.3	1.4	1.13	1.22
LOU-NH91	0.8	0.862	0.889	0.887	0.855	0.706	0.683	0.768	0.73	0.712	0.615	0.631	0.714	0.761	0.468	0.886	0.908	0.958	0.858	0.897
LU99A	0.233	0.262	0.275	0.27	0.237	0.592	0.629	0.62	0.639	0.527	0.36	0.326	0.361	0.374	0.442	0.901	0.823	0.877	1.01	0.822
LXF-289	1.02	0.994	1.04	1.05	0.927	0.701	0.783	0.818	0.835	0.802	1.04	1.12	1.04	1.2	0.964	0.792	0.965	0.951	1.01	0.988
NCI-H23	0.226	0.228	0.22	0.221	0.235	0.524	0.423	0.597	0.463	0.465	0.283	0.276	0.213	0.244	0.223	0.945	1.05	1.04	0.564	1.01
NCI-H322M	0.687	0.76	0.725	0.613	0.575	0.745	0.956	1.02	0.9	0.873	0.46	0.549	0.551	0.553	0.455	0.973	0.896	1.02	0.935	0.948
NCI-H358	0.547	0.519	0.521	0.5	0.521	0.406	0.534	0.588	0.473	0.533	–	0.594	0.532	0.521	0.542	0.769	0.81	0.784	0.625	0.591
NCI-H441	0.564	0.52	0.571	0.688	0.521	0.741	0.804	0.919	0.665	0.696	1.1	1.01	1.1	1.35	0.997	0.909	0.976	1.12	1.48	0.691
NCI-H460	0.368	0.344	0.355	0.278	0.263	0.748	0.763	1.03	0.647	0.911	0.555	0.529	0.625	0.622	0.497	1.02	1.08	1.06	0.864	0.977
NCI-H596	0.674	0.546	0.673	0.6	0.613	0.964	1.1	1.06	0.931	0.981	0.913	0.98	0.959	1.15	0.86	0.859	0.9	0.947	0.869	0.891
NCI-H647	0.477	0.528	0.55	0.523	0.305	1.06	0.987	1.1	1.21	1.21	0.379	0.372	0.558	0.382	0.414	1.34	1.19	1.46	1.04	1.19
NCI-H650	0.338	0.348	0.392	0.368	0.367	0.741	0.66	0.932	0.643	0.805	0.766	0.896	1.05	0.926	0.999	0.978	0.966	1.14	0.977	1.01
